Measurements published in ChEMBL document CHEMBL5113388 (Bioorg Med Chem Lett, 2022).

Experiments:
PC-9 [1] = test: Antiproliferative activity against human PC-9 cells harboring EGFR del19/T790M/C797S mutant assessed as inhibition of cell proliferation; format: functional, cell-based
BaF3 = test: Antiproliferative activity against mouse BaF3 cells harboring del19/T790M/C797S mutant assessed as inhibition of cell proliferation; format: functional, cell-based
[2] = Oral bioavailability in CD-1 mouse at 10 mg/kg; format: ADME, organism-based; settings: in vivo
[3] = AUC (0 to last) in CD-1 mouse at 2 mg/kg, iv; format: ADME, organism-based; design: time 0 - last, dose 2 mg/kg, route iv; settings: in vivo
[4] = AUC (0 to last) in CD-1 mouse at 10 mg/kg, po; format: ADME, organism-based; design: time 0 - last, dose 10 mg/kg, route po; settings: in vivo
Homo sapiens [5] = organism: Homo sapiens; test: Selectivity ratio of IC50 for inhibition of wild type EGFR (unknown origin) to IC50 for inhibition of EGFR del19/T790M/C797S mutant (unknown origin)
[6] = Clearance in CD-1 mouse at 2 mg/kg, iv; format: ADME, organism-based; settings: in vivo
[7] = Half-life in CD-1 mouse at 2 mg/kg, iv; format: ADME, organism-based; settings: in vivo
[8] = target: Epidermal growth factor receptor (Homo sapiens, UniProt P00533, L858R/T790M); test: Inhibition of EGFR L858R/T790M mutant (unknown origin)
Sequence of Epidermal growth factor receptor (Homo sapiens, UniProt P00533, L858R/T790M) (P00533 25-1210 T790M/L858R limits assumed): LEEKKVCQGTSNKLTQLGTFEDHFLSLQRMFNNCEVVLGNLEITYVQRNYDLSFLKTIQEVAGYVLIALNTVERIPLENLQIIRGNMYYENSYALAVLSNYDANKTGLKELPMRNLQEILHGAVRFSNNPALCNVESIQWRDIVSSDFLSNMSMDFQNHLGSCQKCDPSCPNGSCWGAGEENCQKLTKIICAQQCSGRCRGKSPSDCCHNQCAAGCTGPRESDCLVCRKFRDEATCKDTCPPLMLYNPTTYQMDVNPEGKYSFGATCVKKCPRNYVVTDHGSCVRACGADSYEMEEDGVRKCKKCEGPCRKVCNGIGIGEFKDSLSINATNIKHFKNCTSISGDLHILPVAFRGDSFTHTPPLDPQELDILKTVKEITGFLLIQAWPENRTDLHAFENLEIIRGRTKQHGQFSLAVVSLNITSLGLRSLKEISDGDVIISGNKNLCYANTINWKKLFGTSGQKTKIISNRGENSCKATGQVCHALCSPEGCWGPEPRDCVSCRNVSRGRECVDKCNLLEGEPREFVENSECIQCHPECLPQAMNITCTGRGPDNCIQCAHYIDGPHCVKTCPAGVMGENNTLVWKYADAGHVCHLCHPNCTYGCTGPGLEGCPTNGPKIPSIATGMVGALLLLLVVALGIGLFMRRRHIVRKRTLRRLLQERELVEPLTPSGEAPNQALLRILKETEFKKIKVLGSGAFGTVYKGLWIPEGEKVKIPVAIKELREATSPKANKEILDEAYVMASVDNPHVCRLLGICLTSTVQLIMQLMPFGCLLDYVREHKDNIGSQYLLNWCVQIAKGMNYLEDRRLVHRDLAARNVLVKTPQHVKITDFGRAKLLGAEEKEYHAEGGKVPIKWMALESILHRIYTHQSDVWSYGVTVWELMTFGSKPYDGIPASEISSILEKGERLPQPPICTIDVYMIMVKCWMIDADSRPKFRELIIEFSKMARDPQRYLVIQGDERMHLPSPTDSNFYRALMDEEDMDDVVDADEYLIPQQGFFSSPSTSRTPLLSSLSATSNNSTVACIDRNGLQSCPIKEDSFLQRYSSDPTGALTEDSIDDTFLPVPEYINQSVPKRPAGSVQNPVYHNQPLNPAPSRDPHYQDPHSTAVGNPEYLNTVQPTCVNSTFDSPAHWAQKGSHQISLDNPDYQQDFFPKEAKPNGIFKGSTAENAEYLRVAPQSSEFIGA

[9] = target: Epidermal growth factor receptor (Homo sapiens, UniProt P00533, L858R); test: Inhibition of EGFR L858R mutant (unknown origin)
Homo sapiens [10] = organism: Homo sapiens; test: Selectivity ratio of IC50 for inhibition of wild type EGFR (unknown origin) to IC50 for inhibition of EGFR del19/T790M mutant (unknown origin)
[11] = Cmax in CD-1 mouse at 10 mg/kg, po; format: ADME, organism-based; design: dose 10 mg/kg, route po; settings: in vivo
[12] = target: Epidermal growth factor receptor (Homo sapiens, UniProt P00533, C797S/EX19DEL/T790M); test: Inhibition of EGFR del19/T790M/C797S mutant (unknown origin)
Sequence of Epidermal growth factor receptor (Homo sapiens, UniProt P00533, C797S/EX19DEL/T790M) (P00533 whole entry, looked up, stated change not applied): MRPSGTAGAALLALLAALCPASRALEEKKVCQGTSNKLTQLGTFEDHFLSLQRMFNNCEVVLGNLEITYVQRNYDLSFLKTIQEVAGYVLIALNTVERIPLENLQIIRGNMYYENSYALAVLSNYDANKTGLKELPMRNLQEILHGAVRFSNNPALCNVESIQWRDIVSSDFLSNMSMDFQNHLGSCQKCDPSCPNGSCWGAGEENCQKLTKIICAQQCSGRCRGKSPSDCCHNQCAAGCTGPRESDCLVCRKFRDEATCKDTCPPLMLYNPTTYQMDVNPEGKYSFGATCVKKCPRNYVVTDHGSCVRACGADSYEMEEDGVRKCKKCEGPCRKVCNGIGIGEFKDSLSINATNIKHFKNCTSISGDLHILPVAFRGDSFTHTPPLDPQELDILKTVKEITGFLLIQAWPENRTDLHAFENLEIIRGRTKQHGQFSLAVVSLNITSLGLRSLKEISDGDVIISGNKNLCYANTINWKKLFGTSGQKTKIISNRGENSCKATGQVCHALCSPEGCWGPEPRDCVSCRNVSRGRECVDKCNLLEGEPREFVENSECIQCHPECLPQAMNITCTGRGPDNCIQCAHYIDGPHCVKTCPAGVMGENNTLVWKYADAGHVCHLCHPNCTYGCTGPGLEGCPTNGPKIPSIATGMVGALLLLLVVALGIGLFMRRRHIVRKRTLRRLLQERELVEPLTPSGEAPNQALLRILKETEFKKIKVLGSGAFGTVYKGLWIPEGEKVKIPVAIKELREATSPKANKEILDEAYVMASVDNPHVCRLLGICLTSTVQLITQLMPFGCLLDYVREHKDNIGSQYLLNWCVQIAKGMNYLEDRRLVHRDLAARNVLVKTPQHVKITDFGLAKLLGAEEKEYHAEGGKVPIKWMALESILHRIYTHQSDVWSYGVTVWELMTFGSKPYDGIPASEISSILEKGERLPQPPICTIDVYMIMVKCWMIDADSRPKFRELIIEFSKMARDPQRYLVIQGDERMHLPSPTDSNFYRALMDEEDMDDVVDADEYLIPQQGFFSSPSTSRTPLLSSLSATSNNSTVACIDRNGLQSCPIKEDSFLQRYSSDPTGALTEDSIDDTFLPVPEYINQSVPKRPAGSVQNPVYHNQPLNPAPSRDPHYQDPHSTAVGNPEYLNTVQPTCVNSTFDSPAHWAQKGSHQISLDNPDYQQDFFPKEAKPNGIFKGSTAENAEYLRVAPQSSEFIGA

Homo sapiens [13] = organism: Homo sapiens; test: Selectivity ratio of IC50 for inhibition of wild type EGFR (unknown origin) to IC50 for inhibition of EGFR L858R mutant (unknown origin)
[14] = Volume of distribution at steady state in CD-1 mouse at 2 mg/kg, iv; format: ADME, organism-based; settings: in vivo, read-out: Vdss
[15] = target: Epidermal growth factor receptor (Homo sapiens, UniProt P00533, C797S/L858R/T790M); test: Inhibition of EGFR L858R/T790M/C797S mutant (unknown origin)
Sequence of Epidermal growth factor receptor (Homo sapiens, UniProt P00533, C797S/L858R/T790M) (P00533 25-1210 T790M/C797S/L858R limits assumed): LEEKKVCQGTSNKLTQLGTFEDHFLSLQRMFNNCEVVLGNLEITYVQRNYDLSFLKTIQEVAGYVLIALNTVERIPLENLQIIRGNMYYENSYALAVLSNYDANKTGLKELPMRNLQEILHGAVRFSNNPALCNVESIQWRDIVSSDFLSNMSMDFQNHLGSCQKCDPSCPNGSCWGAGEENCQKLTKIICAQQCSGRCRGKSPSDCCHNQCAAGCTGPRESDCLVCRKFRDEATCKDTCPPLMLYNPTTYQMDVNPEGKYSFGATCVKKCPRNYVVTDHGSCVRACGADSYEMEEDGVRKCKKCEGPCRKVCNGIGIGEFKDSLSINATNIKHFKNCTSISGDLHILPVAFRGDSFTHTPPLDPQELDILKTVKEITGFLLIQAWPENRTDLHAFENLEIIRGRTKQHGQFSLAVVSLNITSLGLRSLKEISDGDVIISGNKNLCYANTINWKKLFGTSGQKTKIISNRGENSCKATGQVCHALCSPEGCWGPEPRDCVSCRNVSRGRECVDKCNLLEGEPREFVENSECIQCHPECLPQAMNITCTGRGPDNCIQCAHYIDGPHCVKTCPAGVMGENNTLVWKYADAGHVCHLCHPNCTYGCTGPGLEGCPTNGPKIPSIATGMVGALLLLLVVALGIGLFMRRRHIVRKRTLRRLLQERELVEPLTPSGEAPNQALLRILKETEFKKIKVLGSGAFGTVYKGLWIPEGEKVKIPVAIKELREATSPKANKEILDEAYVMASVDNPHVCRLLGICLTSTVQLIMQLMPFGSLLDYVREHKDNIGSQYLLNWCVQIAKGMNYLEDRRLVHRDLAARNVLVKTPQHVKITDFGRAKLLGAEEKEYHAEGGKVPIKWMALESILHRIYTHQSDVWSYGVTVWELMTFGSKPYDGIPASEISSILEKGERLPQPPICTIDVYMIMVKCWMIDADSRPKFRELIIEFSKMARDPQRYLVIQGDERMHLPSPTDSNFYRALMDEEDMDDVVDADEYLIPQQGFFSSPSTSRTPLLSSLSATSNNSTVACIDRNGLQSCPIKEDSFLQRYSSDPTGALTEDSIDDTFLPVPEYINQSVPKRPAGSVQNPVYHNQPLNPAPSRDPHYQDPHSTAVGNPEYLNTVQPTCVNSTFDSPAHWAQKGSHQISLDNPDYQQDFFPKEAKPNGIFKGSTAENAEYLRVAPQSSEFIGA

Homo sapiens [16] = organism: Homo sapiens; test: Selectivity ratio of IC50 for inhibition of wild type EGFR (unknown origin) to IC50 for inhibition of EGFR L858R/T790M mutant (unknown origin)
Homo sapiens [17] = organism: Homo sapiens; test: Selectivity ratio of IC50 for inhibition of wild type EGFR (unknown origin) to IC50 for inhibition of EGFR L858R/T790M/C797S mutant (unknown origin)
[18] = target: Epidermal growth factor receptor (Homo sapiens, UniProt P00533, EX19DEL); test: Inhibition of EGFR del19 mutant (unknown origin)
Homo sapiens [19] = organism: Homo sapiens; test: Selectivity ratio of IC50 for inhibition of wild type EGFR (unknown origin) to IC50 for inhibition of EGFR del19 mutant (unknown origin)
[20] = Tmax in CD-1 mouse at 10 mg/kg, po; format: ADME, organism-based; settings: in vivo
[21] = target: Epidermal growth factor receptor (Homo sapiens, UniProt P00533, EX19DEL/T790M); test: Inhibition of EGFR del19/T790M mutant (unknown origin)
[22] = target: Epidermal growth factor receptor (Homo sapiens, UniProt P00533); test: Inhibition of wild type EGFR (unknown origin)
Sequence of Epidermal growth factor receptor (Homo sapiens, UniProt P00533) (P00533 whole entry): as the sequence (P00533 whole entry, looked up, stated change not applied) above

PC-9 [23] = test: cells; settings: Homo sapiens, PC-9, 72 h

## CCc1cc(Nc2ncc(Br)c(Nc3ccc4nccnc4c3P(C)(C)=O)n2)c(OC)cc1N1CCC(N(C)CCS(C)(=O)=O)CC1
PC-9 [1]
  IC50: 127 nM

## CCc1cc(Nc2ncc(Br)c(Nc3ccc(C4CC4)cc3P(C)(C)=O)n2)c(OC)cc1N1CCC(N2CCN(CCS(C)(=O)=O)CC2)CC1
PC-9 [1]
  IC50: > 1000 nM
BaF3
  IC50: > 1000 nM

## CCc1cc(Nc2ncc(Br)c(Nc3ccc4c(ccc5ccccc54)c3P(C)(C)=O)n2)c(OC)cc1N1CCC(N2CCN(C)CC2)CC1
PC-9 [1]
  IC50: > 1000 nM
BaF3
  IC50: > 1000 nM

## COc1cc(N2CCC(N3CCN(CCS(C)(=O)=O)CC3)CC2)c(-c2cnn(C)c2)cc1Nc1ncc(Br)c(Nc2ccc(C)c(C)c2P(C)(C)=O)n1
PC-9 [1]
  IC50: > 1000 nM
BaF3
  IC50: > 1000 nM

## COc1cc(N2CCC(N3CCN(C)CC3)CC2)ccc1Nc1ncc(Br)c(Nc2cc3c4c(cccc4c2P(C)(C)=O)COC3)n1
PC-9 [1]
  IC50: > 1000 nM
BaF3
  IC50: > 1000 nM

## COc1cc(N2CCC(N3CCN(C)CC3)CC2)c(-c2cnn(C)c2)cc1Nc1ncc(Br)c(Nc2cc(F)c(C)c(C)c2P(C)(C)=O)n1
PC-9 [1]
  IC50: > 1000 nM
BaF3
  IC50: > 1000 nM

## CCc1cc(Nc2ncc(Br)c(Nc3cc4c5c(cccc5c3P(C)(C)=O)COC4)n2)c(OC)cc1N1CCC(N2CCN(C)CC2)CC1
PC-9 [1]
  IC50: > 1000 nM
BaF3
  IC50: > 1000 nM

## COc1cc(N2CCC(N3CCN(C)CC3)CC2)c(-c2cnn(C3CC3)c2)cc1Nc1ncc(Br)c(Nc2ccc(C)c(C)c2P(C)(C)=O)n1
PC-9 [1]
  IC50: > 1000 nM
BaF3
  IC50: > 1000 nM

## COc1cc(N2CCC(N3CCN(C)CC3)CC2)c(-c2cnn(C)c2)cc1Nc1ncc(Br)c(Nc2cc(C)c(C)c(C)c2P(C)(C)=O)n1
PC-9 [1]
  IC50: 67.4 nM
BaF3
  IC50: 3.6 nM

## CCc1cc(Nc2ncc(Br)c(Nc3ccc4nccnc4c3P(C)(C)=O)n2)c(OC)cc1N1CCC(N2CCN(CCS(C)(=O)=O)CC2)CC1
[2]
  bioavailability: 48.9%
[3]
  AUClast: 13820 ng·h/mL
[4]
  AUC(0-t): 33800 ng·h/mL
Homo sapiens [5]
  Ratio IC50: 54
[6]
  clearance: 2.4 mL/min/kg
[7]
  half-life: 3.3 h
[8]
  IC50: 0.2 nM
[9]
  IC50: 3.1 nM
PC-9 [1]
  IC50: 66.7 nM
Homo sapiens [10]
  Ratio IC50: 81
[11]
  Cmax: 6600 ng/mL
[12]
  IC50: 0.2 nM
Homo sapiens [13]
  Ratio IC50: 3.4
[14]
  Vd: 0.7 L/kg
[15]
  IC50: 0.3 nM
Homo sapiens [16]
  Ratio IC50: 43
Homo sapiens [17]
  Ratio IC50: 41
[18]
  IC50: 0.9 nM
Homo sapiens [19]
  Ratio IC50: 11
[20]
  Tmax: 0.5 h
BaF3
  IC50: 1.53 nM
[21]
  IC50: 0.1 nM
[22]
  IC50: 10.4 nM

## CCc1cc(Nc2ncc(Br)c(Nc3ccc4nccnc4c3P(C)(C)=O)n2)c(OC)cc1N1CCC(N2CCN(CCSC)CC2)CC1
PC-9 [1]
  IC50: 148 nM
BaF3
  IC50: 3.87 nM

## COc1cc(N2CCC(N3CCN(C)CC3)CC2)ccc1Nc1ncc(Cl)c(Nc2ccccc2P(C)(C)=O)n1 [BRIGATINIB]
PC-9 [23]
  IC50: 599 nM

## CCc1cc(Nc2ncc(Br)c(Nc3cc4c5c(cccc5c3P(C)(C)=O)CC4)n2)c(OC)cc1N1CCC(N2CCN(C)CC2)CC1
PC-9 [1]
  IC50: > 1000 nM
BaF3
  IC50: > 1000 nM

## COc1cc(N2CCC(N3CCN(C)CC3)CC2)ccc1Nc1ncc(Br)c(Nc2cc3c4c(cccc4c2P(C)(C)=O)CC3)n1
PC-9 [1]
  IC50: > 1000 nM
BaF3
  IC50: > 1000 nM

## CCc1cc(Nc2ncc(Br)c(Nc3ccc4nc5c(nc4c3P(C)(C)=O)CCCC5)n2)c(OC)cc1N1CCC(N2CCN(C)CC2)CC1
PC-9 [1]
  IC50: 217 nM
BaF3
  IC50: 37.4 nM

## COc1cc(N2CCC(N3CCN(C)CC3)CC2)ccc1Nc1ncc(Br)c(Nc2ccc3c(ccc4ccccc43)c2P(C)(C)=O)n1
PC-9 [1]
  IC50: > 1000 nM
BaF3
  IC50: > 1000 nM
